Data published in publication PMC4941374, “Therapy of pancreatic cancer via an EphA2 receptor-targeted delivery of gemcitabine” (Oncotarget, 2016).
Entries after “also recorded” stand apart in the source; their conditions may differ.

Columns and labels:
pancreatic cancer = details: 126 patients, 63 per group; ref [3]; cited from earlier work
From the text: In 1997, Burris, et al. published a clinical study comparing Gemcitabine to 5-Fluoruracil (5-FU) for the treatment of pancreatic cancer. In this study, 126 patients were enrolled with 63 per treatment group. […] The median survival was 5.65 months for Gemcitabine and 4.41 months for 5-FU. […] This trial encouraged the ...

[1] = tested on: EphA3 ligand binding domain (EphA3-LBD); experiment: Isothermal titration calorimetry (ITC), EphA3 LBD; details: 50 mM phosphate buffer pH 6.5, 100 mM NaCl, ~50% sequence identity with the EphA2 LBD
Protocol: (§1) To further verify the binding affinity and selectivity of the resulting conjugates for the EphA2 ligand binding domain (LBD), we expressed and purified EphA2 and […]. These proteins were dissolved to a final concentration of 100 μM in 50 mM phosphate buffer (pH = 6.5), containing 100 mM NaCl.
(§2) All linear peptides and peptide mimetics were assembled using standard Fmoc peptide synthesis protocol with the Rink amide resin on 433A Peptide Synthesizer (Applied Bio-Systems). In general, in each coupling reaction, approximately 10 equivalents of Fmoc-amino acid, 0.45 M solution of HOBt/HBTU (9 equiv) in DMF, 2 M solution of DIEA in NMP were used, for about 9 minutes. Fmoc de-protection was performed with 20% piperidine in DMF for 10 min. Each peptide was subsequently cleaved from the resin and all protecting groups removed by exposure to a 94% TFA, 2 % water, 2% tri-isopropylsilane, 2% phenol mixture for approximately 3 h. The TFA mixture was subsequently removed under reduced pressure and the peptides were precipitated in diethyl ether, centrifuged, and washed with diethyl ether prior to drying in high vacuum. The crude peptides were purified by preparative reverse phase HPLC. The final compounds were characterized by NMR and MALDI-Mass. […] EphA2-LBD and EphA3-LDB were expressed as reported recently. […]

[2] = tested on: MIA PaCa-2-luc pancreatic cancer xenografts; experiment: MIA PaCa-2-luc subcutaneous xenograft, 123B9-L2-Gem study; assay type: in vivo, human tumor cells in athymic nude mice
Protocol: Similarly, in a separate experiment we compared the efficacy of equimolar doses of Gemcitabine and 123B9-L2-Gem (Figure 3C, 3D).
(§3) Isothermal Titration Calorimetry (ITC) measurements were obtained with Model ITC200 from Microcal/GE Life Sciences. For in vivo studies, all drugs were diluted in 10% Tween-80, 10% DMSO, and 80% PBS.
(§4) 5 × 10^6 MIA PaCa-2-luciferase cells were used to establish bilateral subcutaneous tumors on the flanks of 8–10 week old male athymic nude mice. Studies were done as previously described. Treatment began when tumors reached a palpable size (∼50–100 mm^3) with 9 mice per group. All drugs were administered by tail vein injection twice per week for 4 weeks, for a total of 8 injections. […] BLI measurements were performed at the beginning and end of the study. During imaging, mice were placed in the imaging chamber and maintained with 2% isoflurane gas anesthesia at a flow rate of approximately 0.5–1 L/min per mouse. Anesthetized mice were injected IP with 150 mg/kg body weight D-Luciferin (Xenogen Corporation, Alameda, CA). After approximately 10 min, mice were imaged using a charge-coupled-device (CCD) camera coupled to the Xenogen in vivo imaging (IVIS) imaging system (Caliper Life Sciences, Inc., Hopkinton, MA).
Tumors were measured twice per week using calipers. […]

[3] = target: T1, EphA2 ligand binding domain (EphA2-LBD) (Homo sapiens, UniProt P29317); experiment: Isothermal titration calorimetry (ITC), EphA2 LBD; details: 50 mM phosphate buffer pH 6.5, 100 mM NaCl, as given in legend
T1 construct: made in house
T1 sequence (P29317 28-206 limits assumed): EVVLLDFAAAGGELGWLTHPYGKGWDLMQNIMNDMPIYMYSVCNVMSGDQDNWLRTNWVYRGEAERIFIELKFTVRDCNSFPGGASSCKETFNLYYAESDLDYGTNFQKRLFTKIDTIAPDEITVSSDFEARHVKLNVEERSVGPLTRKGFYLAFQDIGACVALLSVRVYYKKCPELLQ
Protocol: as §1, §2

[4] = tested on: metastatic pancreatic cancer; design: method as in PMID 24131140; details: 861 patients, ref [36]; cited from earlier work
From the text: There is a vital need to develop novel therapies that provide greater clinical benefit to patients without undue toxicity. A Phase 3 clinical study in patients with metastatic pancreatic cancer evaluated nab-Paclitaxel (Abraxane) + Gemcitabine versus Gemcitabine alone in a total of 861 patients.

tumors expressing hENT1 = tested on: tumors expressing hENT1; design: method as in PMID 16818496; details: high versus lower hENT1 expression; ref [5]; cited from earlier work
From the text: (§5) Though there are multiple mechanisms of Gemcitabine resistance, one important mechanism revolves around expression of this protein. […] Patients with higher hENT1 expression have tumors that can more readily take ...

hENT1 = tested on: hENT1; design: method as in PMID 22978251; details: sodium-independent transporter; ref [4]; cited from earlier work
From the text: as §5

[5] = tested on: MIA PaCa-2-luc pancreatic cancer xenografts; experiment: MIA PaCa-2-luc subcutaneous xenograft, YNH-L2-Gemcitabine study; assay type: in vivo, human tumor cells in athymic nude mice; details: for effect on tumor growth: 10 mg/kg Gemcitabine or equimolar conjugate, tail vein, twice per week for 4 weeks, 9 mice/group, caliper tumor volume and BLI; for survival time: Kaplan-Meier, days, mice sacrificed when moribund, Supplementary Figure S2 top
Protocol: MIA PaCa-2-luc cells were used to create bilateral subcutaneous xenografts in athymic nude mice. […] Cells were injected into each flank and then allowed to grow for approximately 1 week. At this point, mice were imaged using BLI and treatment was subsequently initiated. Mice were divided into 4 groups (PBS, Gemcitabine, YDH-L2-Gemcitabine, YNH-L2-Gemcitabine) with 9 mice/group. YDH-L2-Gemcitabine is a scrambled control, where the peptide attached to Gemcitabine should not be specific for EphA2 and, therefore, should not bind to the receptor. Animals were treated 2 times per week via tail vein injection for 4 weeks. A dose of 10 mg/kg Gemcitabine was used along with equimolar doses of YDH-L2-Gemcitabine and YNH-L2-Gemcitabine. At the end of 4 weeks, animals were again imaged and treatment was ended.
as §3, §4
Tumors were measured twice per week using calipers. For in vivo studies, data shown are the mean + SEM and for statistical comparisons we used the two-way Anova analyses (GraphPad). After their last injection, mice were kept for 1 additional week to monitor tumor growth and imaged at the end of that week. The mice were then kept to monitor for the effects of treatment on survival. Mice were kept until reaching a moribund status and they were then sacrificed at that time.

SMILES | median survival (pancreatic cancer) [months] | patients alive at 12-month time point (pancreatic cancer) [%] | patients with clinical benefit (pancreatic cancer) [%] | binding to EphA3 LBD (in words) [1] | effect on tumor growth [5] | survival time [5] | other results
O=c1[nH]cc(F)c(=O)[nH]1 [5-FU, 5-Fluoruracil] | 4.41 | 2 | 4.8 | – | – | – | –
CCCC[C@H](NC(=O)[C@@H]1CCCN1C(=O)[C@@H](NC(=O)[C@H](CO)NC(=O)[C@H](CC(=O)O)NC(=O)[C@@H]1CCCN1C(=O)[C@H](Cc1ccc(O)cc1)NC(=O)[C@H](C)NC(=O)[C@H](CO)NC(=O)COc1ccc(F)c(Cl)c1)C(C)C)C(=O)N[C@@H](CCO)C(=O)N[C@@H](CO)C(=O)N[C@@H](CCCCNC(=O)CCCc1cn(CCCCCC(=O)O[C@@H]2[C@@H](CO)O[C@@H](n3ccc(N)nc3=O)C2(F)F)nn1)C(N)=O [123B9-L2-Gem] | – | – | – | No appreciable binding was detected | – | – | survival time ([2]; Kaplan-Meier, days, mice sacrificed when moribund, Supplementary Figure S2 bottom): significantly longer than both untreated and Gemcitabine treated groups; also recorded: significant increase in survival time; also recorded: prolong survival; effect on tumor growth ([2]; equimolar doses, equivalent of 10 mg/Kg Gemcitabine, tail vein, twice per week for 4 weeks, caliper tumor volume and BLI, 10 mg/kg): significantly more effective than gemcitabine alone in suppressing tumor growth; also recorded: significant efficacy was observed; ΔH, binding to EphA2 LBD [3]: -11 kcal/mol
Nc1ccn([C@@H]2O[C@H](CO)[C@@H](O)C2(F)F)c(=O)n1 [Gemcitabine] | 5.65 | 18 | 23.8 | – | had a modest effect on tumor growth; also recorded: did not exhibit significant efficacy compared to mice treated with vehicle only as control | significant increase in the median survival time compared to untreated mice | median survival [4]: 6.7 months; response rate [4]: 7%; survival rate at 1 year [4]: 22%; survival rate at 2 years [4]: 4%; survival advantage with high tumor hENT1 expression (tumors expressing hENT1): greater survival advantage with Gemcitabine treatment as compared to those with lower hENT1 expression; transport by hENT1 (hENT1): preferentially transport Gemcitabine
CCCC[C@H](NC(=O)[C@@H]1CCCN1C(=O)[C@@H](NC(=O)[C@H](CO)NC(=O)[C@H](CC(=O)O)NC(=O)[C@@H]1CCCN1C(=O)[C@H](Cc1ccc(O)cc1)NC(=O)[C@H](C)NC(=O)[C@H](CO)NC(=O)[C@@H](N)Cc1ccc(O)cc1)C(C)C)C(=O)N[C@@H](CCO)C(=O)N[C@@H](CO)C(=O)N[C@@H](CCCCNC(=O)CCCc1cn(CCCCCC(=O)O[C@@H]2[C@@H](CO)O[C@@H](n3ccc(N)nc3=O)C2(F)F)nn1)C(N)=O [YNH-L2-Gem] | – | – | – | No appreciable binding was detected | significant efficacy was observed | prolong survival | effect on tumor growth ([5]; listed as YNH-L2-Gemcitabine): showed the greatest inhibition of tumor growth of all groups evaluated; also recorded: inhibits tumor growth in vivo to a greater extent as compared to Gemcitabine; survival time ([5]; listed as YNH-L2-Gemcitabine): significant increase in the median survival time compared to untreated mice
